From US11945812B2, “Annulated 2-amino-3-cyano thiophenes and derivatives for the treatment of cancer” (Boehringer Ingelheim International GmbH, priority 2020, dated 2024)
Like-named read-outs stand apart in the source and are kept apart here.

Tests used:
[1] = tested on: ERK phosphorylation in NCI-H358_Cas9_SOS2; test: ERK phosphorylation assay 2 (AlphaLISA SureFire Ultra p-ERK1/2), SOS2 knock-out; type: cell-based; conditions: Homo sapiens, NCI-H358; assay 2 (marked with *); read-out: IC50 H358 pERK
Excerpt: ERK Phosphorylation Assay
Materials Used for the Assay;

[2] = Plasma protein binding (equilibrium dialysis), mouse plasma; type: in vitro ADME; conditions: read-out: PPB mouse fu
Protocol: (§1) Plasma Protein Binding (PPB)
(§2) Binding of test compound to plasma was determined using equilibrium dialysis (ED) and quantitative mass spectrometry interfaced with liquid chromatography (LC-MS). In brief, ED was performed with dialysis devices consisting of two chambers separated by a semipermeable membrane with a molecular weight cut-off of 5-10 kg/mol. One chamber was filled with commercially sourced plasma (mouse and human plasma, respectively) or serum (10% FCS in PBS) containing 1-10 μmol/L test compound and the other chamber was filled with phosphate-buffer saline (PBS) with or without dextran. The dialysis chamber was incubated for 3-5 hours at 37° C. After incubation, protein was precipitated from aliquots of each chamber and the concentration of test compound in the supernatant of the plasma-containing compartment (cplasma) and of the buffer-containing compartment (Cbuffer) was determined by LC-MS. The fraction of unbound test compound (not bound to plasma) (fu) was calculated according to the following equation: […]

[3] = Plasma protein binding (equilibrium dialysis), serum 10% FCS in PBS; type: in vitro ADME; conditions: bovine, 10% FCS in PBS (serum), read-out: PPB 10% FCS fu
Protocol: as §1, §2

[4] = target: T1, KRAS G12C::SOS1 protein-protein interaction (Homo sapiens, UniProt P01116, C118S/C51S/C80L/G12C); test: KRAS::SOS1 AlphaScreen binding assay; conditions: KRAS G12C::SOS1 AlphaScreen
T1 construct: His6 (N); host or cells: E. coli
Excerpt: KRAS::SOS1 AlphaScreen Binding Assay
Reagents: • GST-tagged SOS1 (564_1049_GST_TEV_ECO) produced in-house • GST-TEV-SOS1 (564-1049) is purchased from Viva Biotech Ltd. • The expression construct of KRAS G12C (amino acids 1-169 of reference sequence P01116-2 (uniprot), with additional mutations: C51S, C80L, and C118S) containing a C-terminal avi-tag was obtained by gene synthesis (GeneArt, Thermo Fisher) in donor vector (pDONR-221) and transferred by recombinant cloning into pDEST17 vector bearing an N-terminal His6-tag. The protein was expressed in E. coli and the purified protein was biotinylated with the E. coli biotin ligase (BirA) before usage. • GDP (Sigma Cat No G7127) • AlphaLISA Glutathione Acceptor Beads (PerkinElmer, Cat No AL109) • AlphaScreen Streptavidin Donor Beads (PerkinElmer Cat No 6760002) • Assay plates: Proxiplate-384 PLUS, white (PerkinElmer, Cat No 6008289)
Assay Buffer: • 1×PBS • 0.1% BSA • 0.05% Tween 20
7.5 nM (final assay concentration) KRAS G12C, 10 μM (final assay concentration) GDP and 5 nM (final assay concentration) GST-SOS1 are mixed in assay buffer prior to use and kept at room temperature.
AlphaLISA Glutathione Acceptor Beads and AlphaScreen Streptavidin Donor Beads are mixed in assay buffer at a concentration of 10 μg/mL (final assay concentration) each prior to use and kept at room temperature.
Compounds are diluted to a final start concentration of 100 μM and are tested in duplicate. Assay-ready plates (ARPs) are generated using an Access Labcyte Workstation with a Labcyte Echo 550 or 555 accoustic dispenser. For compound a start concentration of 100 μM, 150 nL of compound solution is transferred per well in 11 concentrations in duplicate with serial 1:5 dilutions.
The assay is run using a fully automated robotic system in a darkened room below 100 Lux. 10 μL of KRAS::SOS1 GDP mix is added into columns 1-24 to the 150 nL of compound solution (final dilution in the assay 1:100, final DMSO concentration 1%).
After 30 minutes incubation time 5 μL of bead mix is added into columns 1-23. Plates are kept at room temperature in a darkened incubator. After further 60 minutes incubation, the signal is measured using a PerkinElmer Envision HTS Multilabel Reader using the AlphaScreen specifications from PerkinElmer. Each plate contains the following controls: • diluted DMSO+KRAS::SOS1 GDP mix+bead mix • diluted DMSO+KRAS::SOS1 GDP mix
IC50 values are calculated and analyzed using a 4 parametric logistic model.
Tables of example compounds disclosed herein contain IC50 values determined using the above assay.

[5] = target: Ba/F3 cells bearing a KRAS G12C mutation (Homo sapiens, UniProt P01116, G12C, cells depend on it); test: Ba/F3 cell model proliferation assay (AlamarBlue, 72 h); type: cell-based
Protocol: Ba/F3 Cell Model Generation and Proliferation Assay
Plasmids containing KRASG12 mutants were obtained from GeneScript. To generate KRASG12-dependent Ba/F3 models, Ba/F3 cells were transduced with retroviruses containing vectors that harbor KRASG12 isoforms. Platinum-E cells (Cell Biolabs) were used for retrovirus packaging. Retrovirus was added to Ba/F3 cells. To ensure infection, 4 μg/mL polybrene was added and cells were spinfected. […] Cells with an infection efficiency of 10% to 20% were further cultivated and puromycin selection with 1 μg/mL was initiated. As a control, parental Ba/F3 cells were used to show selection status. Selection was considered successful when parental Ba/F3 cells cultures died. To evaluate the transforming potential of KRASG12 mutations, the growth medium was no longer supplemented with IL-3. Ba/F3 cells harboring the empty vector were used as a control. Approximately ten days before conducting the experiments, puromycin was left out.
All treatments were performed in technical duplicates. The assay is run using a fully automated robotic system. Treated cells were incubated for 72 h at 37° C. with 5% CO2. AlamarBlue™ (ThermoFisher), a viability stain, was added and fluorescence measured in the PerkinElmer Envision HTS Multilabel Reader.

[6] = Plasma protein binding (equilibrium dialysis), human plasma; type: in vitro ADME; conditions: read-out: PPB human fu
Protocol: as §1, §2

[7] = Ba/F3 KRAS G12C cells, 72 h, 10% FCS, uncorrected, read-out: IC50 Ba/F3 KRASG12C
[8] = corrected by plasma protein binding in 10% FCS (fraction unbound), read-out: IC50 Ba/F3 KRASG12C (corrected)

T1 sequence (P01116 1-169 isoform P01116-2 G12C/C51S/C80L/C118S): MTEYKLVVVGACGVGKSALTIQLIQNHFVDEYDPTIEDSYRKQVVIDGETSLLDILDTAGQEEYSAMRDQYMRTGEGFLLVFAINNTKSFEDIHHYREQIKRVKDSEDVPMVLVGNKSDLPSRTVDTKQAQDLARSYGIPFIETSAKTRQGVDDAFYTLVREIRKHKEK
Chain of Ba/F3 cells bearing a KRAS G12C mutation (P01116 whole entry G12C): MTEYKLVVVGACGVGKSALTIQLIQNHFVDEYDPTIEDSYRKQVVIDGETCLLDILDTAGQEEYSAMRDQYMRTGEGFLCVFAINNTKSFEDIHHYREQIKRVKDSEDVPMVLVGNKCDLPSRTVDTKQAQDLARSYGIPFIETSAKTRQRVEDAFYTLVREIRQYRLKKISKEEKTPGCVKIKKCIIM

Structure (SMILES)	IC50 [1] [nM]	fraction unbound [2]	fraction unbound [3]	IC50 [4] [nM]	GI50 [5, 7] [nM]	GI50 [5, 8] [nM]	fraction unbound [6]
C=CC(=O)N1[C@@H](C)CN(c2nc(-c3cc([C@@]4(C)CCCc5sc(N)c(C#N)c54)on3)nc(O[C@@H](C)[C@@H]3CCCN3C)c2Cl)C[C@@H]1C [Ib-9]	11.3	0.001	0.026	4	2.9	0.08	0.002
C=CC(=O)N1CCC(Oc2cc(N3CCN(C)C[C@@H]3C)nc(-c3cc(C4(C)CCCc5sc(N)c(C#N)c54)on3)n2)CC1 (some centres unmarked) [Ib-8]	12.7	0.001	0.198	13	13.5	2.67	0.014
C=CC(=O)N1CCC(Oc2cc(O[C@@H](C)[C@@H]3CCCN3C)nc(-c3cc([C@@]4(C)CCCc5sc(N)c(C#N)c54)on3)n2)CC1 [Ib-7]	0.6	0.007	0.127	1.5	0.2	0.03	0.018
C=CC(=O)N1[C@H](C)CN(c2cc(O[C@@H](C)[C@@H]3CCCN3C)nc(-c3cc([C@@]4(C)CCCc5sc(N)c(C#N)c54)on3)n2)C[C@@H]1C [Ib-3]	4.1	0.004	0.078	2	3.9	0.3	0.018
C=CC(=O)N1CCN(c2cc(-c3cc(C4(C)CCCc5sc(N)c(C#N)c54)on3)nc(O[C@@H](C)[C@@H]3CCCN3C)n2)CC1 (some centres unmarked) [Ib-2]	3.1			2			
COC/C=C/C(=O)N1CCN(c2cc(O[C@@H](C)[C@@H]3CCCN3C)nc(-c3cc([C@@]4(C)CCCc5sc(N)c(C#N)c54)on3)n2)CC12CC2 [Ib-16]	969	0.002	0.044	42	124	5.45	0.02
C=C(F)C(=O)N1CCC(Oc2cc(N3CCN(C)C[C@@H]3C)nc(-c3cc(C4(C)CCCc5sc(N)c(C#N)c54)on3)n2)CC1 (some centres unmarked) [Ib-13]	1140	< 0.0005	0.114	278	350	39.9	0.005
C=C(F)C(=O)N1[C@@H](C)CN(c2nc(-c3cc([C@@]4(C)CCCc5sc(N)c(C#N)c54)on3)nc(O[C@@H](C)[C@@H]3CCCN3C)c2Cl)C[C@@H]1C [Ib-12]	830	< 0.0004	0.016	74	67.9	1.09	< 0.00052
COC/C=C/C(=O)N1CCN(c2cc(O[C@@H](C)[C@@H]3CCCN3C)nc(-c3cc(C4(C)CCCc5sc(N)c(C#N)c54)on3)n2)CC1 (some centres unmarked) [Ib-15]	32.7	0.011	0.185	17	72.4	13.4	0.041

Further lines, results first:

IC50 [1] [nM]	fraction unbound [2]	fraction unbound [3]	IC50 [4] [nM]	GI50 [5, 7] [nM]	GI50 [5, 8] [nM]	fraction unbound [6]	Structure (SMILES)
58.9	0.003	0.336	21	44	14.8		COC/C=C/C(=O)N1CCN(c2cc(O[C@@H](C)[C@@H]3CCCN3C)nc(-c3cc([C@@]4(C)CCCc5sc(N)c(C#N)c54)sn3)n2)CC12CC2 [Id-9]
20.5			5	5.4			C=C(F)C(=O)N1CCN(c2cc(O[C@@H](C)[C@@H]3CCCN3C)nc(-c3cc(C4(C)CCCc5sc(N)c(C#N)c54)sn3)n2)CC1 (some centres unmarked) [Id-7]
	0.004	0.43				0.014	C=C(F)C(=O)N1CCN(c2nc(OC[C@@H]3CCCN3C)nc3c2CCN(c2cccc4cccc(Cl)c24)C3)C[C@@H]1CC#N [adagrasib, reference compound]
16.1	< 0.0009	0.352	3	4.3	1.51	0.004	C=C(F)C(=O)N1CCC(Oc2cc(O[C@@H](C)[C@@H]3CCCN3C)nc(-c3cc([C@@]4(C)CCCc5sc(N)c(C#N)c54)sn3)n2)CC1 [Id-8]
1.1			1.7	< 1.3			C=CC(=O)N1CCN(c2cc(-c3cc([C@@]4(C)CCCc5sc(N)c(C#N)c54)sn3)nc(O[C@@H](C)[C@@H]3CCCN3C)n2)CC1 [Id-3]
0.5	< 0.001	0.093	1.6	0.7	0.07		C=CC(=O)N1CCC(Oc2cc(O[C@@H](C)[C@@H]3CCCN3C)nc(-c3cc([C@@]4(C)CCCc5sc(N)c(C#N)c54)no3)n2)CC1 [Ic-6]
